Laboratory results as given in ChEMBL document CHEMBL1147095, “Chromosome-encoded narrow-spectrum Ambler class A beta-lactamase GIL-1 from Citrobacter gillenii” (Antimicrob Agents Chemother, 2007).
In brackets after ≈: the same amount, converted by molar mass.

Key:
[1] = test system: Escherichia coli; assay: Antimicrobial activity against Escherichia coli DH10B expressing GIL1 after 18 hrs by […]; assay type: functional
[2] = test system: Escherichia coli; assay: Antimicrobial activity against Escherichia coli DH10B after 18 hrs by […]; assay type: functional
[3] = test system: Citrobacter gillenii; assay: Antimicrobial activity against Citrobacter gillenii CIP 106783 after 18 hrs by […]; assay type: functional; details: CIP 106783, 18 h
[4] = target: T1, Gil1 (Citrobacter gillenii) (UniProt A4KCT8); assay: Ratio of kcat to Km of Citrobacter gillenii CIP 106783 Beta-lactamase GIL1 expressed in Escherichia coli DH10B relative to benzyl-penicillin; set-up: unit not given here
T1 sequence (whole entry): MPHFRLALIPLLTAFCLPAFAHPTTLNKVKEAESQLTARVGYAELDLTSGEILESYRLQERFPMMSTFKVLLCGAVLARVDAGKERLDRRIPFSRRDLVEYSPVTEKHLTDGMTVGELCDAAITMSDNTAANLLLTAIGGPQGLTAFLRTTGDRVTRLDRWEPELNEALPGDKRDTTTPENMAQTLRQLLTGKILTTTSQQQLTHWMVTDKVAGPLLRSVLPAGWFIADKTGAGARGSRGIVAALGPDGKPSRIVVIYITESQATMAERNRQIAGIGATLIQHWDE

[5] = substrate: CC1(C)S[C@@H]2[C@H](NC(=O)Cc3ccccc3)C(=O)N2[C@H]1C(=O)O; assay: (§1) Activity of Citrobacter gillenii CIP 106783 Beta-lactamase GIL1 expressed in Escherichia coli DH10B
[6] = substrate: C[C@@H](O)[C@H]1C(=O)N2C(C(=O)O)=C(SCCNC=N)C[C@H]12; assay: as §1
[7] = substrate: CC1(C)S[C@@H]2[C@H](NC(=O)[C@H](N)c3ccc(O)cc3)C(=O)N2[C@H]1C(=O)O; assay: as §1
[8] = substrate: CC1(C)S[C@@H]2[C@H](NC(=O)[C@H](C(=O)O)c3ccsc3)C(=O)N2[C@H]1C(=O)O; assay: as §1
[9] = substrate: CO/N=C(\C(=O)N[C@@H]1C(=O)N2C(C(=O)O)=C(COC(C)=O)CS[C@H]12)c1csc(N)n1; assay: as §1
[10] = substrate: CC(C)(O/N=C(\C(=O)N[C@@H]1C(=O)N2C(C(=O)[O-])=C(C[n+]3ccccc3)CS[C@H]12)c1csc(N)n1)C(=O)O; assay: as §1
[11] = substrate: CO/N=C(\C(=O)N[C@@H]1C(=O)N2C(C(=O)[O-])=C(C[n+]3cccc4c3CCC4)CS[C@H]12)c1csc(N)n1; assay: as §1
[12] = substrate: CO/N=C(\C(=O)N[C@@H]1C(=O)N2C(C(=O)O)=C(COC(N)=O)CS[C@H]12)c1ccco1; assay: as §1
[13] = substrate: CO/N=C(\C(=O)N[C@@H]1C(=O)N2C(C(=O)[O-])=C(C[N+]3(C)CCCC3)CS[C@H]12)c1csc(N)n1; assay: as §1
[14] = substrate: C[C@H]1[C@H](NC(=O)/C(=N\OC(C)(C)C(=O)O)c2csc(N)n2)C(=O)N1S(=O)(=O)O; assay: as §1
[15] = substrate: CCN1CCN(C(=O)N[C@@H](C(=O)N[C@@H]2C(=O)N3[C@@H]2SC(C)(C)[C@@H]3C(=O)O)c2ccccc2)C(=O)C1=O; assay: as §1
[16] = substrate: CC(=O)OCC1=C(C(=O)O)N2C(=O)[C@@H](NC(=O)Cc3cccs3)[C@H]2SC1; assay: as §1

## CO[C@@]1(NC(=O)C(C(=O)O)c2ccc(O)cc2)C(=O)N2C(C(=O)O)=C(CSc3nnnn3C)CO[C@@H]21 (stereo partly specified) [MOXALACTAM]
[1]
  MIC: 0.25 mg/L (≈ 0.48 µM)
[2]
  MIC: 0.12 mg/L (≈ 0.231 µM)
[3]
  MIC: 0.12 mg/L (≈ 0.231 µM)

## CC(=O)OCC1=C(C(=O)O)N2C(=O)[C@@H](NC(=O)Cc3cccs3)[C@H]2SC1 [CEPHALOTHIN]
[4]
  Ratio: 11
[1]
  MIC: 8 mg/L (≈ 20.2 µM)
[2]
  MIC: 2 mg/L (≈ 5.04 µM)
[3]
  MIC: 2 mg/L (≈ 5.04 µM)

## CO/N=C(\C(=O)N[C@@H]1C(=O)N2C(C(=O)O)=C(COC(N)=O)CS[C@H]12)c1ccco1 [CEFUROXIME]
[4]
  Ratio: 0.4
[1]
  MIC: 8 mg/L (≈ 18.9 µM)
[2]
  MIC: 2 mg/L (≈ 4.71 µM)
[3]
  MIC: 2 mg/L (≈ 4.71 µM)

## CO[C@@]1(NC(=O)Cc2cccs2)C(=O)N2C(C(=O)O)=C(COC(N)=O)CS[C@@H]21 [CEFOXITIN]
[1]
  MIC: 2 mg/L (≈ 4.68 µM)
[2]
  MIC: 2 mg/L (≈ 4.68 µM)
[3]
  MIC: 1 mg/L (≈ 2.34 µM)

## CC(C)(O/N=C(\C(=O)N[C@@H]1C(=O)N2C(C(=O)[O-])=C(C[n+]3ccccc3)CS[C@H]12)c1csc(N)n1)C(=O)O [CEFTAZIDIME]
[4]
  Ratio: 0.01
[1]
  MIC: 0.5 mg/L (≈ 0.915 µM)
[2]
  MIC: 0.06 mg/L (≈ 0.11 µM)
[3]
  MIC: 0.06 mg/L (≈ 0.11 µM)

## CO/N=C(\C(=O)N[C@@H]1C(=O)N2C(C(=O)O)=C(CSc3nc(=O)c(O)nn3C)CS[C@H]12)c1csc(N)n1 [CEFTRIAXONE]
[1]
  MIC: 0.06 mg/L (≈ 0.108 µM)
[2]
  MIC: 0.06 mg/L (≈ 0.108 µM)
[3]
  MIC: 0.06 mg/L (≈ 0.108 µM)

## CCN1CCN(C(=O)N[C@@H](C(=O)N[C@@H]2C(=O)N3[C@@H]2SC(C)(C)[C@@H]3C(=O)O)c2ccccc2)C(=O)C1=O [PIPERACILLIN]
[4]
  Ratio: 61
[1]
  MIC: 32 mg/L (≈ 61.8 µM)
[2]
  MIC: 1 mg/L (≈ 1.93 µM)
[3]
  MIC: 2 mg/L (≈ 3.86 µM)

## CC1(C)S[C@@H]2[C@H](NC(=O)[C@H](N)c3ccc(O)cc3)C(=O)N2[C@H]1C(=O)O [AMOXICILLIN]
[4]
  Ratio: 81
[1]
  MIC: > 512 mg/L
[2]
  MIC: 2 mg/L (≈ 5.47 µM)
[3]
  MIC: 16 mg/L (≈ 43.8 µM)

## C[C@H]1[C@H](NC(=O)/C(=N\OC(C)(C)C(=O)O)c2csc(N)n2)C(=O)N1S(=O)(=O)O [AZTREONAM]
[4]
  Ratio: 0.02
[1]
  MIC: 0.12 mg/L (≈ 0.276 µM)
[3]
  MIC: 0.06 mg/L (≈ 0.138 µM)

## C[C@@H](O)[C@H]1C(=O)N2C(C(=O)O)=C(SCCNC=N)C[C@H]12 [IMIPENEM ANHYDROUS]
[4]
  Ratio: < 0.01
[3]
  MIC: 0.06 mg/L (≈ 0.2 µM)

## CO/N=C(\C(=O)N[C@@H]1C(=O)N2C(C(=O)[O-])=C(C[N+]3(C)CCCC3)CS[C@H]12)c1csc(N)n1
[4]
  Ratio: 0.5
[1]
  MIC: 0.12 mg/L (≈ 0.25 µM)
[3]
  MIC: 0.06 mg/L (≈ 0.125 µM)

## CO/N=C(\C(=O)N[C@@H]1C(=O)N2C(C(=O)[O-])=C(C[n+]3cccc4c3CCC4)CS[C@H]12)c1csc(N)n1 [CEFPIROME]
[4]
  Ratio: 1.9
[1]
  MIC: 0.25 mg/L (≈ 0.486 µM)
[2]
  MIC: 0.06 mg/L (≈ 0.117 µM)
[3]
  MIC: 0.06 mg/L (≈ 0.117 µM)

## CC1(C)S[C@@H]2[C@H](NC(=O)[C@H](C(=O)O)c3ccsc3)C(=O)N2[C@H]1C(=O)O [TICARCILLIN]
[4]
  Ratio: 180
[1]
  MIC: > 512 mg/L
[2]
  MIC: 1 mg/L (≈ 2.6 µM)
[3]
  MIC: 64 mg/L (≈ 166 µM)

## CO/N=C(\C(=O)N[C@@H]1C(=O)N2C(C(=O)O)=C(COC(C)=O)CS[C@H]12)c1csc(N)n1 [CEFOTAXIME]
[4]
  Ratio: 0.2
[1]
  MIC: 1 mg/L (≈ 2.2 µM)
[2]
  MIC: 0.06 mg/L (≈ 0.132 µM)
[3]
  MIC: 0.06 mg/L (≈ 0.132 µM)

## CC1(C)S[C@@H]2[C@H](NC(=O)Cc3ccccc3)C(=O)N2[C@H]1C(=O)O
[4]
  Ratio: 100

B1: Gil1 (Citrobacter gillenii), A4KCT8 (protein)
chain: MPHFRLALIPLLTAFCLPAFAHPTTLNKVKEAESQLTARVGYAELDLTSGEILESYRLQERFPMMSTFKVLLCGAVLARVDAGKERLDRRIPFSRRDLVEYSPVTEKHLTDGMTVGELCDAAITMSDNTAANLLLTAIGGPQGLTAFLRTTGDRVTRLDRWEPELNEALPGDKRDTTTPENMAQTLRQLLTGKILTTTSQQQLTHWMVTDKVAGPLLRSVLPAGWFIADKTGAGARGSRGIVAALGPDGKPSRIVVIYITESQATMAERNRQIAGIGATLIQHWDE
[5]
  Km: 51 µM
  kcat: 286 s⁻¹
  kcat/Km: 5.6e+06 M⁻¹ s⁻¹
[6]
  Km: 2980 µM
  kcat: 0.2 s⁻¹
  kcat/Km: 500 M⁻¹ s⁻¹
[7]
  Km: 84 µM
  kcat: 381 s⁻¹
  kcat/Km: 4.54e+06 M⁻¹ s⁻¹
[8]
  Km: 10 µM
  kcat: 100 s⁻¹
  kcat/Km: 1e+07 M⁻¹ s⁻¹
[9]
  Km: 714 µM
  kcat: 7 s⁻¹
  kcat/Km: 10000 M⁻¹ s⁻¹
[10]
  Km: 1750 µM
  kcat: 1 s⁻¹
  kcat/Km: 600 M⁻¹ s⁻¹
[11]
  Km: 304 µM
  kcat: 32 s⁻¹
  kcat/Km: 106000 M⁻¹ s⁻¹
[12]
  Km: 88 µM
  kcat: 2 s⁻¹
  kcat/Km: 23000 M⁻¹ s⁻¹
[13]
  Km: 2680 µM
  kcat: 77 s⁻¹
  kcat/Km: 29000 M⁻¹ s⁻¹
[14]
  Km: 938 µM
  kcat: 0.8 s⁻¹
  kcat/Km: 1000 M⁻¹ s⁻¹
[15]
  Km: 90 µM
  kcat: 306 s⁻¹
  kcat/Km: 3.4e+06 M⁻¹ s⁻¹
[16]
  Km: 62 µM
  kcat: 37 s⁻¹
  kcat/Km: 598000 M⁻¹ s⁻¹
